Reference: patent publication US11865098B1, “Methods and compositions for treating excessive sleepiness” (Axsome Malta Ltd., priority 2017, dated 2024)

Test system: adults with OSA and excessive sleepiness
Assay: Safety and tolerability (TEAEs), phase 3 randomized withdrawal study in OSA
Type: in vivo, human
Protocol: The study was a double-blind, placebo-controlled, enriched, randomized withdrawal design (FIG. 1). In the Titration Phase (weeks 1-2), patients started on a once-daily dose of APC 75 mg and could be titrated up or down every 3 days to reach a maximum tolerated dose of APC 75, 150, or 300 mg. In the Stable-Dose Phase (weeks 3-4), patients continued to receive the dose that they were titrated to in the Titration Phase for 2 weeks. In the Double-Blind Withdrawal Phase (weeks 5-6), patients who reported “much” or “very much” improvement on the Patient Global Impression of Change (PGI-C) scale (Guy W. ECDEU assessment manual for psychopharmacology, revised. US Department of Health, Education, and Welfare publication (ADM 76-338). Rockville, MD: National Institute of Mental Health; 1976), and who had improved on the Maintenance of Wakefulness Test (MWT) and Epworth Sleepiness Scale (ESS) (Johns, Sleep 14(6):540 (1991)) at week 4 were randomized 1:1 to receive the same current dose of JZP-110 or placebo for 2 weeks.
MWT and ESS data were analyzed using a mixed-effect model repeated measures (MMRM); PGI-C and CGI-C were evaluated using a chi-square test. […] Safety and tolerability were evaluated based on treatment-emergent adverse events (TEAEs), vital signs, and laboratory values.

[1] = Randomized Withdrawal Phase, all JZP-110 doses (n = 62)
[2] = Stable-Dose Phase, all JZP-110 doses (n = 157)

With `NC(=O)OC[C@H](N)Cc1ccccc1` [JZP-110, (R)-2-amino-3-phenylpropyl carbamate] the “Any TEAE, incidence” value [1] was “ρ 18 (29.0) n (%)”, the “Aphthous stomatitis, incidence” value [1] was “ρ 1 (1.6) n (%)” and the “Cough, incidence” value [1] was “ρ 1 (1.6) n (%)”. The “Nasopharyngitis, incidence” value [1] was “ρ 3 (4.8) n (%)”, the “Serious TEAEs, incidence” value [1] was “ρ 0 n (%)” and the “TEAEs leading to withdrawal, incidence” value [1] was “ρ 0 n (%)”. The “Upper respiratory tract infection, incidence” value [1] was “ρ 1 (1.6) n (%)”, the “Diarrhea, incidence” value [2] was “ρ 0 n” and the “Dyspepsia, incidence” value [2] was “ρ 0 n”. The “Serious TEAE, incidence” value [2] was “ρ 0 n”, the “TEAE leading to withdrawal, incidence” value [2] was “ρ 0 n” and the “Any TEAE, incidence” value (Stable-Dose Phase, all JZP-110 doses (n = 157), listed as APC) was 10.2%. The “Serious TEAE, incidence” value (Titration Phase, all JZP-110 doses (n = 174)) was “ρ 0 n”, the “Any TEAE, incidence” value (Titration Phase, all JZP-110 doses (n = 174), listed as APC) was 48.9% and the “Rebound hypersomnia or withdrawal effects after abrupt discontinuation” value (placebo group in the Randomized Withdrawal Phase) was “no evidence of rebound hypersomnia or withdrawal effects”. For the same compound, the “Serious TEAEs in the study” value (whole study) was “no serious TEAEs”.
